In patent publication US10870651B2, “Inhibitors of cyclin-dependent kinase 7 (CDK7)” (Dana-Farber Cancer Institute, Inc., priority 2014, dated 2020):

What was measured:
[1] = molecular target: T1, CDK7 (Homo sapiens (Human), UniProt P50613); assay: Inhibition of kinase activity, CDK7; type: biochemical; details: co-factors cyclin H and MNAT1
Protocol: (§1) Compounds of the invention were assayed for activity against a variety of different kinases. Exemplary results are presented as calculated IC50 values (Table A1 & A2). In Table A1 and A2 “A” represents a calculated IC50 value of less than 100 nM; “B” represents a calculated IC50 value of greater than or equal to 100 nM and less than 1 μM; and “C” represents a calculated IC50 value of 1 μM or greater. The co-factors used for each kinase in the assays were as follows: CDK7: cyclin H and MNAT1; CDK2: cyclin A; CDK9: cyclin K.

[2] = molecular target: MELK (Homo sapiens (Human), UniProt Q14680); assay: Inhibition of kinase activity, MELK; type: biochemical
Protocol: as §1

[3] = test system: Kelly neuroblastoma; assay: Inhibition of cell proliferation (CellTiter-Glo), Kelly; type: cell-based; details: 72 hours incubation, CellTiter-Glo, 4,000 cells/well
Protocol: (§2) Exemplary compounds of the invention were tested at different concentrations. Cells were plated in 96-well plates at the following seeding densities: Jurkat T-cell acute lymphoblastic leukemia 25,000 cells/well; HCT116 colorectal carcinoma 8,000 cells/well; Kelly neuroblastoma 4,000 cells/well. The cells were treated with various concentration of compounds (ranging from 1 nM to 10 μM). DMSO solvent with no compound served as a control. Following incubation for 72 hours, cell survival following treatment with exemplary compounds described herein was assessed by CellTiter-Glo® Luminescent cell viability assay (Promega). IC50 values were determined using GRAPHPAD PRISM 6 software. Exemplary results are shown in Table A3, wherein “A” represents a calculated IC50 value of less than 500 nM; “B” represents a calculated IC50 value of greater than or equal to 500 nM and less than 5000 μM; and “C” represents a calculated IC50 value of 5000 μM or greater

[4] = test system: Jurkat T-cell acute lymphoblastic leukemia; assay: Inhibition of cell proliferation (CellTiter-Glo), Jurkat; type: cell-based; details: Homo sapiens, 72 hours incubation, CellTiter-Glo, 25,000 cells/well
Protocol: as §2

[5] = test system: HCT116 colorectal carcinoma; assay: Inhibition of cell proliferation (CellTiter-Glo), HCT116; type: cell-based; details: Homo sapiens, HCT-116; 72 hours incubation, CellTiter-Glo, 8,000 cells/well
Protocol: as §2

[6] = molecular target: CDK2 (Homo sapiens (Human), UniProt P24941); assay: Inhibition of kinase activity, CDK2; type: biochemical; details: co-factor cyclin A
Protocol: as §1

[7] = molecular target: FGR (Homo sapiens (Human), UniProt P09769); assay: Inhibition of kinase activity, FGR; type: biochemical
Protocol: as §1

[8] = molecular target: RET (Homo sapiens (Human), UniProt P07949); assay: Inhibition of kinase activity, RET; type: biochemical
Protocol: as §1

[9] = molecular target: CHEK2 (Homo sapiens (Human), UniProt O96017); assay: Inhibition of kinase activity, CHEK2; type: biochemical
Protocol: as §1

[10] = molecular target: CDK9 (Homo sapiens (Human), UniProt P50750); assay: Inhibition of kinase activity, CDK9; type: biochemical; details: co-factor cyclin K
Protocol: as §1

[11] = molecular target: PRKCQ (Homo sapiens (Human), UniProt Q04759); assay: Inhibition of kinase activity, PRKCQ; type: biochemical
Protocol: as §1

[12] = molecular target: T1, CDK7; assay: Labeling of CDK7 with an inhibitor (CAK complex, nano LC-MS); type: binding; details: 10-fold molar excess of compound, 6 hrs at 37° C., trypsin digest
Protocol: CAK complex (Millipore cat#14-476) in 40 mM Hepes pH 7.4, 150 mM NaCl, 5% glycerol and 1 mM DTT with protease and phosphatase inhibitors was incubated with a 10-fold molar excess of Compound 101 for 6 hrs at 37° C. Proteins were resolved by SDS-PAGE, bands corresponding to CDK7 were digested in-gel with trypsin, and peptides analyzed by nano LC-MS using an Orbitrap XL mass spectrometer (ThermoFisher Scientific, San Jose, Calif.). Efficiency of labeling was estimated from the reduction in signal of the Cys312 containing peptide […] (SEQ ID NO: 3) compared to DMSO control. Signals from CDK7 peptides VPFLPGDSDLDQLTR (SEQ ID NO: 1) and LDFLGEGQFATVYK were used for normalization. See FIG. 1 for the total ion chromatograms (TIC) and extracted ion chromatograms (EIC) of the CDK7 peptides treated with DMSO (A-D) or Compound 101 (E-H). The labeled peptide was detected by mass spectrometry, as shown in the spectrum of FIG. 2.

[13] = molecular target: HIPK4 (Homo sapiens (Human), UniProt Q8NE63); assay: Inhibition of kinase activity, HIPK4; type: biochemical
Protocol: as §1

[14] = molecular target: SRC (Homo sapiens (Human), UniProt P12931); assay: Inhibition of kinase activity, SRC; type: biochemical
Protocol: as §1

T1 sequence (P50613 whole entry): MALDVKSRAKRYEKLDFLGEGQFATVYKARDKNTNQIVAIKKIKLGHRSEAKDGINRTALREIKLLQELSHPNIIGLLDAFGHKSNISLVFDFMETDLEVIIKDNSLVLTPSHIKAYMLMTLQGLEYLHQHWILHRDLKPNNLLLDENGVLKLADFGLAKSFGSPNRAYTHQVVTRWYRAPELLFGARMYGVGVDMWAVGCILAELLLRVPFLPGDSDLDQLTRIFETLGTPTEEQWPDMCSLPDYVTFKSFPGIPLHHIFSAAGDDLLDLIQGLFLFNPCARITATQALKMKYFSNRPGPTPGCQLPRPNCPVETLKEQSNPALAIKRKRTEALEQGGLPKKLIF
T1 sequence (P51946 whole entry partner): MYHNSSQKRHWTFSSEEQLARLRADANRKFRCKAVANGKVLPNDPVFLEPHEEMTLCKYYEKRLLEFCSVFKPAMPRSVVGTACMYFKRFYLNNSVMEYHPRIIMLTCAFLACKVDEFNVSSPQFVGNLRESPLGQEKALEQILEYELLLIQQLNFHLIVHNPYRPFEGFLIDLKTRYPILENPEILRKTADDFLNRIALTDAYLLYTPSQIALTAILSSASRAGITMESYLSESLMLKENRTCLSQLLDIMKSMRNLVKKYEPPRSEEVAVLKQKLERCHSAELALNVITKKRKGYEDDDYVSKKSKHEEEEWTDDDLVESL
T1 sequence (P51948 whole entry partner): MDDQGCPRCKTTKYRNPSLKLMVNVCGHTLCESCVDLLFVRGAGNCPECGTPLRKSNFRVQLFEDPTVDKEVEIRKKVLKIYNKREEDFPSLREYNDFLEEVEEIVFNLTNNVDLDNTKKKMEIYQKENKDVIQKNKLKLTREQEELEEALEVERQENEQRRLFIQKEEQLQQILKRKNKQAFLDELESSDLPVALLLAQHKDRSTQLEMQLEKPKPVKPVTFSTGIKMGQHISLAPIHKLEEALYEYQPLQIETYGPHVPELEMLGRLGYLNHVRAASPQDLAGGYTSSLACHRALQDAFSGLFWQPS
MELK, sequence (Q14680 whole entry): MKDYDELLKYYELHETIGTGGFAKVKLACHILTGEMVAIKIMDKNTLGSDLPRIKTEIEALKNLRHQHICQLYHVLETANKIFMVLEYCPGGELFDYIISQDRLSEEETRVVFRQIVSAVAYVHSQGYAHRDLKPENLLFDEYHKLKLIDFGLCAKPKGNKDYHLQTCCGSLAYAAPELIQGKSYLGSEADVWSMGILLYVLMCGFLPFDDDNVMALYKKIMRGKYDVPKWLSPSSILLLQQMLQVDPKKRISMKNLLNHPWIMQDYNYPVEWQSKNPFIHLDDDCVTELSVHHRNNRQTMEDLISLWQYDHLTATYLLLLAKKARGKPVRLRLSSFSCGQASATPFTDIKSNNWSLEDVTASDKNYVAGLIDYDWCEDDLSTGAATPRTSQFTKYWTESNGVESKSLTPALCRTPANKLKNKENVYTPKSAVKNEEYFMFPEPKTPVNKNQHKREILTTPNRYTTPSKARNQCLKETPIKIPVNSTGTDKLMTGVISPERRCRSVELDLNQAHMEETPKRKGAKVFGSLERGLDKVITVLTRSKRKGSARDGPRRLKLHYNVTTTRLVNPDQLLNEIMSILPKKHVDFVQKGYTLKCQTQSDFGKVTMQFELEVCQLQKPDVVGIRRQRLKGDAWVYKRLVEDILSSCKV
FGR, sequence (P09769 whole entry): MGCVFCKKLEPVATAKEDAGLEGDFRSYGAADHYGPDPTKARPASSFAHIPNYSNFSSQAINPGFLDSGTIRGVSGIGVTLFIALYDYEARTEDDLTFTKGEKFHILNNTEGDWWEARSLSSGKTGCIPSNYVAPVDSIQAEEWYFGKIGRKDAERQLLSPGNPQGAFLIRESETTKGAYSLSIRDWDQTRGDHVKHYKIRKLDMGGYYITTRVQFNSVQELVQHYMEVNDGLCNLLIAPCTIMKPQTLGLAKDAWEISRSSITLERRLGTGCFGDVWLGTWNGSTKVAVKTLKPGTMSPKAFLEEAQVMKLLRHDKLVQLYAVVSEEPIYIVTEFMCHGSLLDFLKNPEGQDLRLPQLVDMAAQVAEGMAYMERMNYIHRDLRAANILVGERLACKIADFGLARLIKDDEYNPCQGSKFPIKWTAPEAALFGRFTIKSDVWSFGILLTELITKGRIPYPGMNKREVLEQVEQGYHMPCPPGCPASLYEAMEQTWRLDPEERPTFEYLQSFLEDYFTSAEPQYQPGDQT
HIPK4, sequence (Q8NE63 whole entry): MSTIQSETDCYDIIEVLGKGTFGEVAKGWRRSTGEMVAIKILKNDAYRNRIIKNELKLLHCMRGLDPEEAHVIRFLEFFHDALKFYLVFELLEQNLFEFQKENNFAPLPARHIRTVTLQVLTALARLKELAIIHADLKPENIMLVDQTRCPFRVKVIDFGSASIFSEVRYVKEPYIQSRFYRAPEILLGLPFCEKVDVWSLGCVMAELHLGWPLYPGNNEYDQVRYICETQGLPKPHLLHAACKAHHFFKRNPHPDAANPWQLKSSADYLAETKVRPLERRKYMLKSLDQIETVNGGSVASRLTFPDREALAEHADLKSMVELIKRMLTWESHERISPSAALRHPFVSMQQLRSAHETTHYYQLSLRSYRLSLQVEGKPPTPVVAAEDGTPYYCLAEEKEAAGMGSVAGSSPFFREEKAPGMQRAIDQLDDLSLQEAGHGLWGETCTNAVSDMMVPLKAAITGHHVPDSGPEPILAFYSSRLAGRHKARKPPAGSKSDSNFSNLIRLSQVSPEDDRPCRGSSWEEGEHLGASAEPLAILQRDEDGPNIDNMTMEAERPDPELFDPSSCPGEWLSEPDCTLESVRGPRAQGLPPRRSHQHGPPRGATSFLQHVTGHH
CHEK2, sequence (O96017 whole entry): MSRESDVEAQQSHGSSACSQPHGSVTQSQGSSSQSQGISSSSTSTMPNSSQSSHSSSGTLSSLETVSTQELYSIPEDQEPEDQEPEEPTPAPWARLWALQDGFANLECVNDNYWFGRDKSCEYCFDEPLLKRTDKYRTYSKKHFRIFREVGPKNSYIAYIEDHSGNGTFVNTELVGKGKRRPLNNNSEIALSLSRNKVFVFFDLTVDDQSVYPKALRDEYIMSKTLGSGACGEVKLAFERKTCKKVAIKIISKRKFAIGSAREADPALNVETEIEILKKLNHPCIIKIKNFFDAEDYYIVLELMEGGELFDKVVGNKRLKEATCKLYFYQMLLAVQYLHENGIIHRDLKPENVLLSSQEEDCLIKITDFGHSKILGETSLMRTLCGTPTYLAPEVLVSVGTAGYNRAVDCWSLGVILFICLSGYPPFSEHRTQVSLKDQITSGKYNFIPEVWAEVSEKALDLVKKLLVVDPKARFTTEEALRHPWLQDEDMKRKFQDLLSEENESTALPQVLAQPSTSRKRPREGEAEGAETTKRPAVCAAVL
SRC, sequence (P12931 whole entry, looked up): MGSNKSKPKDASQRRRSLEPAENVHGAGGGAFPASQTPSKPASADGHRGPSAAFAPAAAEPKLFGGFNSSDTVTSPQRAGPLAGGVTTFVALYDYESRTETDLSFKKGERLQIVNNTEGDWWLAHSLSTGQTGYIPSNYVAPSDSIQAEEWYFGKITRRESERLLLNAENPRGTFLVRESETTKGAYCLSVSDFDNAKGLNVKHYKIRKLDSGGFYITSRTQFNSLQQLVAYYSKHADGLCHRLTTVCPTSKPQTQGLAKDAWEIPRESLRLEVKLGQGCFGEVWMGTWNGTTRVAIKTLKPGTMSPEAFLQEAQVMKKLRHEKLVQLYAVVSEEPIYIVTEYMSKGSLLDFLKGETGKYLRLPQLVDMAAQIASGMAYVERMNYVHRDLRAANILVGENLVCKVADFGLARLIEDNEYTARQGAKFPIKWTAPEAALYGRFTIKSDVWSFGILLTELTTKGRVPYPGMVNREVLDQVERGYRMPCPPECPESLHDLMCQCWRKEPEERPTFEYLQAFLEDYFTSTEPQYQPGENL
CDK9, sequence (P50750 whole entry): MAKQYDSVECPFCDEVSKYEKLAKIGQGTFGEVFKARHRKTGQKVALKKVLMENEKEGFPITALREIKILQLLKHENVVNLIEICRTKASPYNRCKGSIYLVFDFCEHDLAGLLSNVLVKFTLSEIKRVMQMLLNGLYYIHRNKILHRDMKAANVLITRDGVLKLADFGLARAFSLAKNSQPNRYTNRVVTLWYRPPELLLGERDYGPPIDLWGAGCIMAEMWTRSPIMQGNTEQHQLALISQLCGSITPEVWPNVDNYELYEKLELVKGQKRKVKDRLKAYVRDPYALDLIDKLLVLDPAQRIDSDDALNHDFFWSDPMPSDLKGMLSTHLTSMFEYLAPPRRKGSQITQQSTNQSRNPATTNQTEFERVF
CDK9, sequence (O75909 whole entry partner): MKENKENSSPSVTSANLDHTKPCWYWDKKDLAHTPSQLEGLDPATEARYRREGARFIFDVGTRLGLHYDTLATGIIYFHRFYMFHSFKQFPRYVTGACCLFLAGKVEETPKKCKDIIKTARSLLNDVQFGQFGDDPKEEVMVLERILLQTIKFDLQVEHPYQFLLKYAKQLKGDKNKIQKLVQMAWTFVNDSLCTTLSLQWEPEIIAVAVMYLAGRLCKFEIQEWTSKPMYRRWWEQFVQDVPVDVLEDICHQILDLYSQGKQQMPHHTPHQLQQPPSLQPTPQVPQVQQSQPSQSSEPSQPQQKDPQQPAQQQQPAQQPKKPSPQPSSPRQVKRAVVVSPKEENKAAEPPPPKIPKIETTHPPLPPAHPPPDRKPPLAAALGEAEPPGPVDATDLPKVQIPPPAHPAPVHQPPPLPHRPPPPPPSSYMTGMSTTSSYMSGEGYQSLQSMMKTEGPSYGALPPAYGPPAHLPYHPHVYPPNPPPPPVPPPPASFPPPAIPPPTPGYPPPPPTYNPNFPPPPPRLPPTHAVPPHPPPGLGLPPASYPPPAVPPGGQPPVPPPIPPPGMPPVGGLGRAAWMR

IC50 [1] [µM] | IC50 [2] [µM] | IC50 [3] [µM] | IC50 [4] [µM] | IC50 [5] [µM] | IC50 [6] [µM] | IC50 [7] [µM] | IC50 [8] [µM] | IC50 [9] [µM] | IC50 [10] [µM] | IC50 [11] [µM] | Covalent labeling of CDK7 peptide detected by mass spectrometry [12] | IC50 [13] [µM] | IC50 [14] [µM] | Compound
0.1 to 1 | 0.1 to 1 | ≥ 5000 | – | – | – | – | – | – | – | – | – | – | – | C=CC(=O)Nc1ccc(C(=O)Nc2cccc(Nc3n[nH]c4c3CN(C(=O)NCCN(C)C)C4(C)C)c2)cc1 [Compound 106, 3-((3-(4-acrylamidobenzamido)phenyl)amimo)-N-(2-(dimethylamino)ethyl)-6,6-dimethyl-4,6-dihydropyrrolo[3,4-c]pyrazole-5(1H)-carboxamide]
< 0.1 | – | – | 0.5 to 5000 | 0.5 to 5000 | – | – | – | – | – | – | – | – | – | CCC(=O)Nc1ccc(C(=O)Nc2cccc(Nc3n[nH]c4c3CN(C(=O)N[C@H](CN(C)C)c3ccccc3)C4(C)C)c2)cc1 [Compound 104, (S)-N-(2-(dimethylamino)-1-phenylethyl)-6,6-dimethyl-3-((3-(4-propionamidobenzamido)phenyl)amino)-4,6-dihydropyrrolo[3,4-c]pyrazole-5(1H)-carboxamide]
< 0.1 | 0.1 to 1 | 0.5 to 5000 | < 0.5 | < 0.5 | ≥ 1 | < 0.1 | < 0.1 | < 0.1 | ≥ 1 | < 0.1 | labeled with Compound 101 at Cys312 | 0.1 to 1 | < 0.1 | C=CC(=O)Nc1ccc(C(=O)Nc2cccc(Nc3n[nH]c4c3CN(C(=O)N[C@H](CN(C)C)c3ccccc3)C4(C)C)c2)cc1 [Compound 101, (S)-3-((3-(4-acrylamidobenzamido)phenyl)amino)-N-(2-(dimethylamino)-1-phenylethyl)-6,6-dimethyl-4,6-dihydropyrrolo[3,4-c]pyrazole-5(1H)-carboxamide]
